Tests used:
[1] = tested on: effets β1 (augmentation de la force contractile du myocarde) de l'isoprénaline; test: β-blocking activity: inhibition of the β1 effects of intravenous isoprenaline in anaesthetised dogs; assay type: in vivo, chiens; conditions: dog; for inhibition at 0.001 mg/kg / inhibition at 0.003 mg/kg / inhibition at 0.01 mg/kg / inhibition at 0.1 mg/kg: Canis lupus familiaris, iv, inhibition given with negative sign, read-out: % d'inhibition des effets β1^(+) de l'Isoprénaline; for inhibition at 0.001 mg/kg: 0,001 mg/kg I.V.; for inhibition at 0.003 mg/kg: 0,003 mg/kg I.V.; for inhibition at 0.01 mg/kg: 0,010 mg/kg I.V.; for inhibition at 0.1 mg/kg: 0,100 mg/kg I.V.
Protocol: (§1) Des chiens tout-venants mâles ou femelles sont anesthésiés au mébubarbital sodique (30 mg/kg I.V.) et ventilés artificiellement par une pompe Pesty RPP. Ils sont supplémentés en oxygène.
(§2) On mesure: • - la pression carotidienne systolique et diastolique • - la force contractile du myocarde.
(§3) Les signaux sont amplifiés et enregistrés sur Dynograph Beckman.
(§4) L'activité β bloquante adrénergique a été étudiée vis-à-vis des effets β1 (augmentation de la force contractile du myocarde) et des effets P2 (diminution de la pression artérielle disstolique) de l'isoprénaline administrée par voie intraveineuse.
(§5) On calcule le pourcentsge d'inhibition des effets β1 et des effets β2 de l'isoprénaline en fonction des doses (mg.kg I.V.) des différents exemples.
(§6) Les exemples sont injectés dans le veine saphène aux doses (exprimées en base) de: 0,0003 0,001 0,003 0,01 0,1 1,0 et 4,0 ou 8,0 mg.kg-1.

[2] = tested on: effets β2 (diminution de la pression artérielle diastolique) de l'isoprénaline; test: β-blocking activity: inhibition of the β2 effects of intravenous isoprenaline in anaesthetised dogs; assay type: in vivo, chiens; conditions: dog; for inhibition at 0.001 mg/kg / inhibition at 0.003 mg/kg / inhibition at 0.01 mg/kg / inhibition at 0.1 mg/kg: Canis lupus familiaris, iv, inhibition given with negative sign, read-out: % d'inhibition des effets β2^⊕ de l'Isoprénaline; for inhibition at 0.001 mg/kg: 0,001 mg/kg I.V.; for inhibition at 0.003 mg/kg: 0,003 mg/kg I.V.; for inhibition at 0.01 mg/kg: 0,010 mg/kg I.V.; for inhibition at 0.1 mg/kg: 0,100 mg/kg I.V.
Protocol: as §1, §2, §3, §4, §5, §6

[3] = tested on: rat génétiquement hypertendu: Rat OKAMOTO; test: Antihypertensive activity in spontaneously hypertensive rats (tail-cuff systolic pressure and heart rate after oral dosing); assay type: in vivo
Protocol: Des rats mâles âgés de 13 à 21 semaines présentant une hypertension spontanée génétiquement transmissible (souche OKAMOTO provenance IFFA CREDO) sont placés dans une enceinte thermostatée à 38°C. Les rats sont laissés en situation libre. La pression artérielle est mesurée par un sphygmomanomètre Narco Biosystem. Un manchon est placé à la base de la queue et un détecteur enregistre le pouls en aval du manchon. Celui-ci est gonflé jusqu'à suppression du pouls il est ensuite progressivement dégonflé. La pression mesurée à la reprise des battements cardiaques est la pression artérielle systolique. On calcule la fréquence cardiaque à partir de l'enregistrement du pouls artériel. Les produits à étudiar sont mis en suspension el administrés par voie orale sous un volume de 1 ml pour 100 g de poids corporel. Les mesures sont répétées à intervalles réguliers.
Les valeurs moyennes avant traitement pour les différents lots de rats sont pour la pression artérielle systolique de 190 à 200 mmHg et pour la fréquence cardiaque de 305 à 350 battements par minute.
Le tableau III ci-après donne la moyenne des variations de la pression systolique (mmHg) de la fréquence cardisque (battements/minute) et les écarts type à la moyenne obtenus 1 heure 3 heures et 5 heures après administration orale.

[4] = 0.001 mg.kg^-1 voie intraveineuse
[5] = 0.003 mg.kg^-1 voie intraveineuse
[6] = 0.01 mg.kg^-1 voie intraveineuse
[7] = 0.1 mg.kg^-1 voie intraveineuse
[8] = 1.0 mg.kg^-1 voie intraveineuse
[9] = 8.0 mg.kg^-1 voie intraveineuse
[10] = 128 mg.kg^-1 V.O, T+5 heures, mean
[11] = 4.0 mg.kg^-1 voie intraveineuse

Row | SMILES | Pourcentages d'inhibition des effets β1 de l'Isoprénaline [1, 4] | Pourcentages d'inhibition des effets β1 de l'Isoprénaline [1, 5] | Pourcentages d'inhibition des effets β1 de l'Isoprénaline [1, 6] | Pourcentages d'inhibition des effets β1 de l'Isoprénaline [1, 7] | Pourcentages d'inhibition des effets β1 de l'Isoprénaline [1, 8] | inhibition at 0.001 mg/kg [1] | inhibition at 0.003 mg/kg [1] | inhibition at 0.01 mg/kg [1] | inhibition at 0.1 mg/kg [1] | Pourcentages d'inhibition des effets β2 de l'Isoprénaline [2, 8] | inhibition at 0.001 mg/kg [2] | inhibition at 0.003 mg/kg [2] | inhibition at 0.01 mg/kg [2] | inhibition at 0.1 mg/kg [2] | Fréquence cardiaque Δ (battements/min) T+1 heure m (sm) ([3]; 128 mg.kg^-1 V.O) | Pression systolique Δ (mmHg) T+1 heure m (sm) ([3]; 128 mg.kg^-1 V.O) | Fréquence cardiaque Δ (battements/min) T+3 heures m (sm) ([3]; 128 mg.kg^-1 V.O) | Pression systolique Δ (mmHg) T+3 heures m (sm) ([3]; 128 mg.kg^-1 V.O) | Fréquence cardiaque Δ (battements/min) T+5 heures m (sm) ([3]; 128 mg.kg^-1 V.O, T+5 heures) | Pression systolique Δ (mmHg) T+5 heures m (sm) ([3]; 128 mg.kg^-1 V.O, T+5 heures) | further results
1 | CC(C)(C)NCC(O)COc1ccc(NC(=O)Cc2cccs2)cc1C#N (stereo not drawn) [exemple 7, 1-[2-cyano 4-(2-thiénylacétamido)phénoxy] 3-terbutylamino 2-propanol] | 24% | 70% | 86% | 100% | 100% | -24% | -70% | -86% | -100% | 88% | 0% | -4% | -16% | -36% | +36 (4) battements/min | -27 (5) mmHg | +29 (4) battements/min | -27 (5) mmHg | +25 (9) battements/min | -31 (5) mmHg | Pourcentages d'inhibition des effets β1 de l'Isoprénaline [1, 9]: 100%; Pourcentages d'inhibition des effets β2 de l'Isoprénaline [2, 5]: 4%; Pourcentages d'inhibition des effets β2 de l'Isoprénaline [2, 6]: 16%; Pourcentages d'inhibition des effets β2 de l'Isoprénaline [2, 7]: 36%; Pourcentages d'inhibition des effets β2 de l'Isoprénaline [2, 9]: 100%; Pression systolique Δ (mmHg) T+1 heure m ([3]; 128 mg.kg^-1 V.O, mean): -27 mmHg; Fréquence cardiaque Δ (battements/minute) T + 3 heures m ([3]; 128 mg.kg^-1 V.O, mean): +29 battements/minute; Pression systolique Δ (mmHg) T+3 heures m ([3]; 128 mg.kg^-1 V.O, mean): -27 mmHg; Pression systolique Δ (mmHg) T+5 heures m [3, 10]: -31 mmHg
2 | CC(C)NCC(O)COc1ccc(NC(=O)Cc2cccs2)cc1C#N (stereo not drawn) [exemple 8, 1-[2-cyano 4-(2-thiénylacétamido)phénoxy] 3-isopropylamino 2-propanol] | 5% | 12% | 38% | 64% | 86% | -5% | -12% | -38% | -64% | 16% | 0% | 0% | 0% | 0% | +31 (11) battements/min | -39 (8) mmHg | +36 (7) battements/min | -31 (9) mmHg | +12 (13) battements/min | -25 (5) mmHg | Pourcentages d'inhibition des effets β1 de l'Isoprénaline [1, 11]: 100%; Pourcentages d'inhibition des effets β2 de l'Isoprénaline [2, 11]: 100%; Pression systolique Δ (mmHg) T+1 heure m ([3]; 128 mg.kg^-1 V.O, mean): -39 mmHg; Fréquence cardiaque Δ (battements/minute) T + 3 heures m ([3]; 128 mg.kg^-1 V.O, mean): +36 battements/minute; Pression systolique Δ (mmHg) T+3 heures m ([3]; 128 mg.kg^-1 V.O, mean): -31 mmHg; Fréquence cardiaque Δ (battements/minute) T + 5 heures m [3, 10]: +12 battements/minute; Pression systolique Δ (mmHg) T+5 heures m [3, 10]: -25 mmHg
3 | CC(C)(C)NCC(O)COc1ccc(NC(=O)Cc2ccsc2)cc1C#N (stereo not drawn) [exemple 9, 1-[2-cyano 4-(3-thiénylacétamido)phénoxy] 3-terbutylamino 2-propanol] | 22% | 74% | 91% | 100% | 100% | -22% | -74% | -91% | -100% | 100% | 0% | 0% | -8% | -42% |  |  |  |  |  |  | Pourcentages d'inhibition des effets β1 de l'Isoprénaline [1, 9]: 100%; Pourcentages d'inhibition des effets β2 de l'Isoprénaline [2, 6]: 8%; Pourcentages d'inhibition des effets β2 de l'Isoprénaline [2, 7]: 42%; Pourcentages d'inhibition des effets β2 de l'Isoprénaline [2, 9]: 100%; Fréquence cardiaque Δ (battements/min) T+1 heure m (sm) ([3]; 64 mg.kg^-1 V.O): +27 (11) battements/min; Pression systolique Δ (mmHg) T+1 heure m (sm) ([3]; 64 mg.kg^-1 V.O): -16 (4) mmHg; Fréquence cardiaque Δ (battements/min) T+3 heures m (sm) ([3]; 64 mg.kg^-1 V.O): +13 (13) battements/min; Pression systolique Δ (mmHg) T+3 heures m (sm) ([3]; 64 mg.kg^-1 V.O): -25 (8) mmHg; Fréquence cardiaque Δ (battements/min) T+5 heures m (sm) ([3]; 64 mg.kg^-1 V.O, T+5 heures): +13 (13) battements/min; Pression systolique Δ (mmHg) T+5 heures m (sm) ([3]; 64 mg.kg^-1 V.O, T+5 heures): -38 (6) mmHg
4 | CC(C)NCC(O)COc1ccc(NC(=O)Cc2ccsc2)cc1C#N (stereo not drawn) [exemple 10, 1-[2-cyano 4-(3-thiénylacétamido)phénoxy] 3-isopropylamino 2-propanol] |  |  |  |  |  | -22% |  | -47% | -91% |  | -21% |  | -33% | -39% | +25 (15) battements/min | -13 (12) mmHg | +28 (7) battements/min | -5 (9) mmHg | +25 (7) battements/min | -26 (8) mmHg | 
5 | CC(C)NCC(O)COc1ccc(NC(=O)Cc2ccsc2)cc1Cl (stereo not drawn) [exemple 46, 1-[2-chloro 4-(3-thiénylacétamido)phénoxy] 3-isopro-pylamino 2-propanol] |  |  |  |  |  | -17% | -44% | -84% | -100% |  | -5% | -5% | -20% | -19% |  |  |  |  |  |  | 
6 | CC(C)(C)NCC(O)COc1ccc(NC(=O)Cc2cccs2)cc1F (stereo not drawn) [exemple 47, 1-[2-fluoro 4-(2-thiénylscétamido)phénoxy] 3-terbutylamino 2-propanol] |  |  |  |  |  | -12% | -33% | -66% | -96% |  | -24% | -4% | 0% | -12% |  |  |  |  |  |  | 

Reference: patent EP0071535B1, “(4-(2 and/or 3-Thienylacetamido)-phenoxy)-hydroxyaminopropanes, their preparation, their therapeutic use and intermediates” (CARPIBEM (CENTRE D'ACTIVITE ET DE RECHERCHE PHARMACEUTIQUE …, priority 1981, dated 1983)
